Assay results reported in US12570642B2, “GLP-IR modulating compounds” (Gilead Sciences, Inc., priority 2021, dated 2026).

The compounds below were run against GLP-1R (Homo sapiens, UniProt P43220) (assay: GLP-1R Activation - cAMP Assay). Conditions: cAMP increase in CHO cells stably expressing GLP-1R; each compound run on one of the two cAMP assays (Assay 1 or Assay 2, not specified).
Assay type: cell-based
Summary of the method: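 cAMP rise read by HTRF after 30 min agonist exposure (10-point titration, 37 °C) in HBSS/20 mM Hepes/0.1% BSA, following 1 h pre-incubation. Cells: stable GLP-1R CHO line, 1,000/well, seeded overnight. Sigmoidal fit of response vs log concentration gives EC50.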

GLP-1R, sequence (P43220 24-463): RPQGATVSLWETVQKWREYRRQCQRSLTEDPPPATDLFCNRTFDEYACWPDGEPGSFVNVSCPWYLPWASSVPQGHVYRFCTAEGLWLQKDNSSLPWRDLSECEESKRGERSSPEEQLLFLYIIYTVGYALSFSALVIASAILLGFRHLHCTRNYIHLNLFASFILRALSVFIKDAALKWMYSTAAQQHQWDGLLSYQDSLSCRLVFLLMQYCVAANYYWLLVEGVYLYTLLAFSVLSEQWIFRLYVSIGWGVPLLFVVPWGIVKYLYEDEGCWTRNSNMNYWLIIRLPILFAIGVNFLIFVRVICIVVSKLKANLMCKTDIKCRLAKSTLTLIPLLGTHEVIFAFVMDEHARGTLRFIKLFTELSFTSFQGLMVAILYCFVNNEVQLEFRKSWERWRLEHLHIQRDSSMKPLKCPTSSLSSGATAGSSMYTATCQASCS

Compound | EC50 [nM]
CC1(C)COC[C@H]1n1c(Cc2c(F)cc(-c3cccc(OCc4ccc(C#N)cc4F)n3)c(F)c2F)nc2ccc(C(=O)O)cc21 [Example 120, (S)-2-(4-(6-((4-cyano-2-fluorobenzyl)oxy)pyridin-2-yl)-2,3,6-trifluorobenzyl)-1-(4,4-dimethyltetrahydrofuran-3-yl)-benzimidazole-6-carboxylic Acid] | 0.101
CC1(C)COC[C@H]1n1c(Cc2cc(F)c(-c3ccnc(OCc4ccc(Cl)cc4F)n3)cc2F)nc2ccc(C(=O)O)cc21 [Example 121, (S)-2-(4-(2-((4-chloro-2-fluorobenzyl)oxy)pyrimidin-4-yl)-2,5-difluorobenzyl)-1-(4,4-dimethyltetrahydrofuran-3-yl)-1H-benzo[d]imidazole-6-carboxylic Acid] | 0.083
CC1(C)COCC1n1c(Cc2c(F)cc(-c3cccc(OCc4ccc(C#N)cc4F)n3)c(F)c2F)nc2c(F)cc(C(=O)O)cc21 (stereo not shown) [Example 122, 2-(4-(6-((4-cyano-2-fluorobenzyl)oxy)pyridin-2-yl)-2,3,6-trifluorobenzyl)-1-(4,4-dimethyltetrahydrofuran-3-yl)-4-fluoro-1H-benzo[d]imidazole-6-carboxylic Acid] | 0.031
CC1(C)COC[C@@H]1n1c(Cc2c(F)cc(-c3cccc(OCc4ccc(C#N)cc4F)n3)c(F)c2F)nc2c(F)cc(C(=O)O)cc21 [Example 123] | 0.528
CC1(C)COC[C@H]1n1c(Cc2c(F)cc(-c3cccc(OCc4ccc(C#N)cc4F)n3)c(F)c2F)nc2c(F)cc(C(=O)O)cc21 [Example 124] | 0.027
COCCn1c(Cc2cc(F)c(-c3ccc(F)c(OCc4ccc(C#N)cc4F)n3)cc2F)nc2ccc(C(=O)O)c(F)c21 [Example 125, 2-(4-(6-((4-cyano-2-fluorobenzyl)oxy)-5-fluoropyridin-2-yl)-2,5-difluorobenzyl)-7-fluoro-1-(2-methoxyethyl)-1H-benzo[d]imidazole-6-carboxylic Acid] | 0.112
CC1(C)COC[C@H]1n1c(Cc2cc(F)c(-c3cccc(OCc4ccc(Cl)cc4F)n3)cc2F)nc2c(Cl)cc(C(=O)O)cc21 [Example 126, (S)-4-chloro-2-(4-(6-((4-chloro-2-fluorobenzyl)oxy)pyridin-2-yl)-2,5-difluorobenzyl)-1-(4,4-dimethyltetrahydrofuran-3-yl)-1H-benzo[d]imidazole-6-carboxylic Acid] | 0.332
CC1(C)COC[C@H]1n1c(Cc2cc(F)c(-c3ccc(F)c(OCc4ccc(C#N)cc4F)n3)cc2F)nc2c(Cl)cc(C(=O)O)cc21 [Example 127, (S)-4-chloro-2-(4-(6-((4-cyano-2-fluorobenzyl)oxy)-5-fluoropyridin-2-yl)-2,5-difluorobenzyl)-1-(4,4-dimethyltetrahydrofuran-3-yl)-1H-benzo[d]imidazole-6-carboxylic Acid] | 0.353
CC1(C)COC[C@H]1n1c(Cc2cc(F)c(-c3ccnc(OCc4ccc(C#N)cc4F)n3)cc2F)nc2c(Cl)cc(C(=O)O)cc21 [Example 129, (S)-4-chloro-2-(4-(2-((4-cyano-2-fluorobenzyl)oxy)pyrimidin-4-yl)-2,5-difluorobenzyl)-1-(4,4-dimethyltetrahydrofuran-3-yl)-1H-benzo[d]imidazole-6-carboxylic Acid] | 0.271
CC1(C)COC[C@H]1n1c(Cc2cc(F)c(-c3cccc(OCc4ccc(C#N)cc4F)n3)cc2F)nc2c(Cl)cc(C(=O)O)cc21 [Example 130, (S)-4-chloro-2-(4-(6-((4-cyano-2-fluorobenzyl)oxy)pyridin-2-yl)-2,5-difluorobenzyl)-1-(4,4-dimethyltetrahydrofuran-3-yl)-1H-benzo[d]imidazole-6-carboxylic Acid] | 0.038
CC1(C)COC[C@H]1n1c(Cn2cc(F)c(-c3ccc(F)c(OCc4ccc(Cl)cc4F)n3)cc2=O)nc2c(F)cc(C(=O)O)cc21 [Example 131, (S)-2-((6-((4-chloro-2-fluorobenzyl)oxy)-5,5′-difluoro-2′-oxo-[2,4′-bipyridin]-1′(2′H)-yl)methyl)-1-(4,4-dimethyltetrahydrofuran-3-yl)-4-fluoro-1H-benzo[d]imidazole-6-carboxylic Acid] | 0.145
CC1(C)COC[C@H]1n1c(Cn2cc(F)c(-c3ccc(F)c(OCc4ccc(C#N)cc4F)n3)cc2=O)nc2c(F)cc(C(=O)O)cc21 [Example 132, (S)-2-((6-((4-cyano-2-fluorobenzyl)oxy)-5,5′-difluoro-2′-oxo-[2,4′-bipyridin]-1′(2′H)-yl)methyl)-1-(4,4-dimethyltetrahydrofuran-3-yl)-4-fluoro-1H-benzo[d]imidazole-6-carboxylic Acid] | 0.043
Cc1cc(Cc2nc3c(F)cc(C(=O)O)cc3n2[C@@H]2COCC2(C)C)c(Cl)cc1-c1cccc(OCc2ccc(C#N)cc2)n1 [Example 133, (S)-2-(2-chloro-4-(6-((4-cyanobenzyl)oxy)pyridin-2-yl)-5-methylbenzyl)-1-(4,4-dimethyltetrahydrofuran-3-yl)-4-fluoro-1H-benzo[d]imidazole-6-carboxylic Acid] | 0.021
Cc1cc(Cc2nc3ccc(C(=O)O)cc3n2[C@@H]2COCC2(C)C)c(Cl)cc1-c1cccc(OCc2ccc(C#N)cc2)n1 [Example 134, (S)-2-(2-chloro-4-(6-((4-cyanobenzyl)oxy)pyridin-2-yl)-5-methylbenzyl)-1-(4,4-dimethyltetrahydrofuran-3-yl)-1H-benzo[d]imidazole-6-carboxylic Acid] | 0.077
Cc1cc(Cc2nc3ccc(C(=O)O)cc3n2[C@@H]2COCC2(C)C)c(Cl)cc1-c1ccc(F)c(OCc2ccc(C#N)cc2)n1 [Example 135, (S)-2-(2-chloro-4-(6-((4-cyanobenzyl)oxy)-5-fluoropyridin-2-yl)-5-methylbenzyl)-1-(4,4-dimethyltetrahydrofuran-3-yl)-1H-benzo[d]imidazole-6-carboxylic Acid] | 0.361
Cc1cc(Cc2nc3c(F)cc(C(=O)O)cc3n2[C@@H]2COCC2(C)C)c(Cl)cc1-c1ccc(F)c(OCc2ccc(C#N)cc2)n1 [Example 136, (S)-2-(2-chloro-4-(6-((4-cyanobenzyl)oxy)-5-fluoropyridin-2-yl)-5-methylbenzyl)-1-(4,4-dimethyltetrahydrofuran-3-yl)-4-fluoro-1H-benzo[d]imidazole-6-carboxylic Acid] | 0.312
CC1(C)COC[C@H]1n1c(Cn2cc(F)c(-c3cccc(OCc4ccc(Cl)cc4F)n3)cc2=O)nc2c(F)cc(C(=O)O)cc21 [Example 137, (S)-2-((6-((4-chloro-2-fluorobenzyl)oxy)-5′-fluoro-2′-oxo-[2,4′-bipyridin]-1′(2′H)-yl)methyl)-1-(4,4-dimethyltetrahydrofuran-3-yl)-4-fluoro-1H-benzo[d]imidazole-6-carboxylic Acid] | 0.039

Now from value to compound:

EC50 [nM] | Compound
0.136 | Cc1cc(Cc2nc3c(F)cc(C(=O)O)cc3n2[C@@H]2COCC2(C)C)c(Cl)cc1-c1ccc(F)c(OCc2ccc(C#N)cc2F)n1 [Example 138, (S)-2-(2-chloro-4-(6-((4-cyano-2-fluorobenzyl)oxy)-5-fluoropyridin-2-yl)-5-methylbenzyl)-1-(4,4-dimethyltetrahydrofuran-3-yl)-4-fluoro-1H-benzo[d]imidazole-6-carboxylic Acid]
0.023 | Cc1cc(Cc2nc3c(F)cc(C(=O)O)cc3n2[C@@H]2COCC2(C)C)c(Cl)cc1-c1cccc(OCc2ccc(C#N)cc2F)n1 [Example 139, (S)-2-(2-chloro-4-(6-((4-cyano-2-fluorobenzyl)oxy)pyridin-2-yl)-5-methylbenzyl)-1-(4,4-dimethyltetrahydrofuran-3-yl)-4-fluoro-1H-benzo[d]imidazole-6-carboxylic Acid]
0.158 | Cc1cc(Cc2nc3ccc(C(=O)O)cc3n2[C@@H]2COCC2(C)C)c(Cl)cc1-c1ccc(F)c(OCc2ccc(C#N)cc2F)n1 [Example 140, (S)-2-(2-chloro-4-(6-((4-cyano-2-fluorobenzyl)oxy)-5-fluoropyridin-2-yl)-5-methylbenzyl)-1-(4,4-dimethyltetrahydrofuran-3-yl)-1H-benzo[d]imidazole-6-carboxylic Acid]
0.079 | Cc1cc(Cc2nc3ccc(C(=O)O)cc3n2[C@@H]2COCC2(C)C)c(Cl)cc1-c1cccc(OCc2ccc(C#N)cc2F)n1 [Example 141, (S)-2-(2-chloro-4-(6-((4-cyano-2-fluorobenzyl)oxy)pyridin-2-yl)-5-methylbenzyl)-1-(4,4-dimethyltetrahydrofuran-3-yl)-1H-benzo[d]imidazole-6-carboxylic Acid]
0.894 | Cc1cc(Cc2nc3c(F)cc(C(=O)O)cc3n2C[C@@H]2CCO2)c(Cl)cc1-c1ccc(F)c(OCc2ccc(C#N)cc2F)n1 [Example 142, (S)-2-(2-chloro-4-(6-((4-cyano-2-fluorobenzyl)oxy)-5-fluoropyridin-2-yl)-5-methylbenzyl)-4-fluoro-1-(oxetan-2-ylmethyl)-1H-benzo[d]imidazole-6-carboxylic Acid]
0.614 | Cc1cc(Cc2nc3c(F)cc(C(=O)O)cc3n2C[C@@H]2CCO2)c(Cl)cc1-c1cccc(OCc2ccc(C#N)cc2F)n1 [Example 143, (S)-2-(2-chloro-4-(6-((4-cyano-2-fluorobenzyl)oxy)pyridin-2-yl)-5-methylbenzyl)-4-fluoro-1-(oxetan-2-ylmethyl)-1H-benzo[d]imidazole-6-carboxylic Acid]
1.08 | Cc1cc(Cc2nc3ccc(C(=O)O)cc3n2C[C@@H]2CCO2)c(Cl)cc1-c1ccc(F)c(OCc2ccc(C#N)cc2F)n1 [Example 144, (S)-2-(2-chloro-4-(6-((4-cyano-2-fluorobenzyl)oxy)-5-fluoropyridin-2-yl)-5-methylbenzyl)-1-(oxetan-2-ylmethyl)-1H-benzo[d]imidazole-6-carboxylic Acid]
0.022 | CC1(C)COC[C@H]1n1c(Cn2cc(F)c(-c3cccc(OCc4ccc(C#N)cc4F)n3)cc2=O)nc2c(F)cc(C(=O)O)cc21 [Example 145, (S)-2-((6-((4-cyano-2-fluorobenzyl)oxy)-5′-fluoro-2′-oxo-[2,4′-bipyridin]-1′(2′H)-yl)methyl)-1-(4,4-dimethyltetrahydrofuran-3-yl)-4-fluoro-1H-benzo[d]imidazole-6-carboxylic Acid]
